Measurements as given in patent publication US20230165969A1, “PHARMACEUTICAL COMPOSITION COMPRISING ANTIBODY DRUG CONJUGATE AND USE THEREOF” (priority 2020, published 2023).

System: trastuzumab (Herceptin)-resistant human breast cancer cell strain JIMT-1 xenograft tumor
Assay: Drug efficacy on JIMT-1 tumor-bearing mice
Assay type: in vivo, nu/nu nude mice
Settings: 10 mg/kg, two intraperitoneal injections, observation for 34 days
Experimental: The tumor volumes and body weights were measured twice a week and the results were recorded.

For T-DM1, the tumor inhibition rate was “no inhibition effect on tumors”.
